# Values joined by “and” are separate entries in the source; they are usually repeats but may differ in a detail not shown here. Equal entries are not always repeated. Where two headings read alike, the source gives them in different places.
# Columns and labels:
# [1] = From the text: (§1) Tryptophan emission is a sensitive indicator for the physical environment surrounding the amino acid (˜330 nm in a folded or hydrophobic environment; ˜355 nm in an unfolded or aqueous environment).
# GAS membranes = assay: SEM analysis of GAS membranes; type: cell-based, Group A Streptococcus; settings: 16 μM peptide
# [2] = ANTS/DPX leakage from lipid vesicles; settings: incubated with lipid vesicles for 1 hour
# Description: Both delta-haemolysin and PSMdelta were evaluated for their ability to perforate synthetic lipid vesicles. Lipid vesicles were made with a 2:1 molar ratio of POPC to POPG. The lipid vesicles, extruded through a 200 nm polycarbonate film, encapsulated the fluorescent dye, ANTS, and a quencher: DPX. Upon membrane perforation, ANTS/DPX are released and separated, allowing ANTS to fluoresce at 530 nm.
# [3] = remark: listed apart in the source
# From the text: Sequestration of tryptophan (Trp) can be observed through blue shift in wavelength of photon emission after excitation at 290 nm. […] (c) overlay of emission spectra.
# as §1
Molecule,MBC (GAS),MIC (GAS),MIC (GAS; listed as Synthetic delta-haemolysin),MIC of delta-haemolysin in the presence of PSMdelta (GAS; with 2 μM PSMdelta),deltaG^1(H2O) ([1]; 5 μM peptide),midpoint of the unfolding curve ([1]; 5 μM peptide),deltaG^1(H2O) ([1]; 25 μM peptide),midpoint of the unfolding curve ([1]; 25 μM peptide),"deltaG^1(H2O) ([1]; 25 μM peptide, figure legend)",membrane effect seen by SEM (GAS membranes),ANTS fluorescence at 530 nm (vesicle leakage) [2],tryptophan emission ([3]; before incubation with lipid vesicles),tryptophan emission ([3]; incubation with lipid vesicles),tryptophan emission ([3]; lipid vesicles plus urea)
CC[C@H](C)[C@H](NC(=O)[C@H](Cc1c[nH]c2ccccc12)NC(=O)[C@H](CCCCN)NC(=O)[C@@H](NC(=O)[C@H](CC(C)C)NC(=O)[C@H](CC(=O)O)NC(=O)CNC(=O)[C@@H](NC(=O)[C@@H](NC(=O)[C@H](CO)NC(=O)[C@@H](NC(=O)[C@@H](NC(=O)[C@H](CC(=O)O)NC(=O)[C@H](C)NC(=O)[C@H](C)NC(=O)[C@@H](N)CCSC)[C@@H](C)CC)[C@@H](C)CC)[C@@H](C)O)[C@@H](C)CC)C(C)C)C(=O)N[C@H](C(=O)N[C@@H](CC(=O)O)C(=O)N[C@H](C(=O)N[C@H](C(=O)N[C@@H](CC(N)=O)C(=O)N[C@@H](CCCCN)C(=O)N[C@@H](Cc1ccccc1)C(=O)N[C@@H](CCCCN)C(=O)N[C@@H](CCCCN)C(=O)O)C(C)C)[C@@H](C)O)[C@@H](C)CC [delta-haemolysin],16 µM,8 µM,16 µM,4 µM,1.43 kcal/mol,2.14 M urea,1.57 kcal/mol,3.20 M urea and 3.2 M urea,1.57 kcal/mol,membrane blebbing and disruption,Dose-dependent fluorescence,339 nm,332 nm,335 nm
CRAMP [reference compound],,,,,,,,,,Membrane disruption,,,,
"MSIVSTIIEVVKTIVDIVKKFKK (listed as Staphylococcus epidermidis) [PSMdelta, peptide identified in S. epidermidis fraction 37, tested as synthetic peptide]",,,,,,,,,,,Dose-dependent fluorescence,,,

# Reference: patent publication US20100166708A1, “ANTIMICROBIAL AND ANTI-INFLAMMATORY THERAPIES AND COMPOSITIONS” (THE REGENTS OF THE UNIVERSITY OF CALIFORNIA, priority 2007, published 2010)
